Measured values published in article PMC9814781, “Structure-based design of a dual-warhead covalent inhibitor of FGFR4” (Communications Chemistry, 2022).

Experiments:
PDGFRa = PDGFRa (Homo sapiens, UniProt P16234); assay: Kinase selectivity profiling
FYNb = FYNb (Homo sapiens, UniProt P06241); assay: Kinase selectivity profiling
EPHB4 = EPHB4 (Homo sapiens, UniProt P54760); assay: Kinase selectivity profiling
EPHA7 = EPHA7 (Homo sapiens, UniProt Q15375); assay: Kinase selectivity profiling
LYNa = LYNa (Homo sapiens, UniProt P07948); assay: Kinase selectivity profiling
EPHA5 = EPHA5 (Homo sapiens, UniProt P54756); assay: Kinase selectivity profiling
MAPKAPK2 = MAPKAPK2 (Homo sapiens, UniProt P49137); assay: Kinase selectivity profiling
CDK2/CycE1 = CDK2/CycE1 (Homo sapiens, UniProt P24941); assay: Kinase selectivity profiling
BRK = BRK (Homo sapiens, UniProt Q13882); assay: Kinase selectivity profiling
PLK1 = PLK1 (Homo sapiens, UniProt P53350); assay: Kinase selectivity profiling
MER = MER (Homo sapiens, UniProt Q12866); assay: Kinase selectivity profiling
Huh7 = Huh7 viability assay; type: cell-based; settings: Homo sapiens, Huh-7; Huh7, FGF19-overexpressing HCC cell line, 72 h, CCK-8
Procedure: Hep3B (ThermoFisher Scientific, 11965, America) and Huh7 (ThermoFisher Scientific, 11095, America) cells were seeded into 96-well plates at 4000 cells/well and 2000 cells/well, respectively. […] Cell viabilities were measured by a CCK-8 kit (Vazyme, China). The IC50 values were calculated using GraphPad Prism software.

AurC = AurC (Homo sapiens, UniProt Q9UQB9); assay: Kinase selectivity profiling
TGFbR1 = TGFbR1 (Homo sapiens, UniProt P36897); assay: Kinase selectivity profiling
p38δ = p38δ (Homo sapiens, UniProt O15264); assay: Kinase selectivity profiling
HPK1 = HPK1 (Homo sapiens, UniProt Q92918); assay: Kinase selectivity profiling
BRAF[V600E] = BRAF[V600E] (Homo sapiens, UniProt P15056, V600E); assay: Kinase selectivity profiling
MUSK = MUSK (Homo sapiens, UniProt O15146); assay: Kinase selectivity profiling
IKKε(IKBKE) = IKKε(IKBKE) (Homo sapiens, UniProt Q14164); assay: Kinase selectivity profiling
IRR = IRR (Homo sapiens, UniProt P14616); assay: Kinase selectivity profiling
TNIK = TNIK (Homo sapiens, UniProt Q9UKE5); assay: Kinase selectivity profiling
CDK9/CycK = CDK9/CycK (Homo sapiens, UniProt P50750); assay: Kinase selectivity profiling
PAK4 = PAK4 (Homo sapiens, UniProt O96013); assay: Kinase selectivity profiling
HIPK2 = HIPK2 (Homo sapiens, UniProt Q9H2X6); assay: Kinase selectivity profiling
FGFR1 = FGFR1 (Homo sapiens, UniProt P11362); assay: Kinase selectivity profiling
p38γ = p38γ (Homo sapiens, UniProt P53778); assay: Kinase selectivity profiling
DYRK1B = DYRK1B (Homo sapiens, UniProt Q9Y463); assay: Kinase selectivity profiling
NEK9 = NEK9 (Homo sapiens, UniProt Q8TD19); assay: Kinase selectivity profiling
RON = RON (Homo sapiens, UniProt Q04912); assay: Kinase selectivity profiling
TRKC(NTRK3) = TRKC(NTRK3) (Homo sapiens, UniProt Q16288); assay: Kinase selectivity profiling
FLT1 (VEGFR1) = FLT1 (VEGFR1) (Homo sapiens, UniProt P17948); assay: Kinase selectivity profiling
TYK2 = TYK2 (Homo sapiens, UniProt P29597); assay: Kinase selectivity profiling
TAOK2 = TAOK2 (Homo sapiens, UniProt Q9UL54); assay: Kinase selectivity profiling
SRC = SRC (Homo sapiens, UniProt P12931); assay: Kinase selectivity profiling
EPHA2 = EPHA2 (Homo sapiens, UniProt P29317); assay: Kinase selectivity profiling
AKT1 = AKT1 (Homo sapiens, UniProt P31749); assay: Kinase selectivity profiling
JAK2 = JAK2 (Homo sapiens, UniProt O60674); assay: Kinase selectivity profiling
Erk2 = Erk2 (Homo sapiens, UniProt P28482); assay: Kinase selectivity profiling
CLK1 = CLK1 (Homo sapiens, UniProt P49759); assay: Kinase selectivity profiling

IRR, sequence (P14616 27-1297): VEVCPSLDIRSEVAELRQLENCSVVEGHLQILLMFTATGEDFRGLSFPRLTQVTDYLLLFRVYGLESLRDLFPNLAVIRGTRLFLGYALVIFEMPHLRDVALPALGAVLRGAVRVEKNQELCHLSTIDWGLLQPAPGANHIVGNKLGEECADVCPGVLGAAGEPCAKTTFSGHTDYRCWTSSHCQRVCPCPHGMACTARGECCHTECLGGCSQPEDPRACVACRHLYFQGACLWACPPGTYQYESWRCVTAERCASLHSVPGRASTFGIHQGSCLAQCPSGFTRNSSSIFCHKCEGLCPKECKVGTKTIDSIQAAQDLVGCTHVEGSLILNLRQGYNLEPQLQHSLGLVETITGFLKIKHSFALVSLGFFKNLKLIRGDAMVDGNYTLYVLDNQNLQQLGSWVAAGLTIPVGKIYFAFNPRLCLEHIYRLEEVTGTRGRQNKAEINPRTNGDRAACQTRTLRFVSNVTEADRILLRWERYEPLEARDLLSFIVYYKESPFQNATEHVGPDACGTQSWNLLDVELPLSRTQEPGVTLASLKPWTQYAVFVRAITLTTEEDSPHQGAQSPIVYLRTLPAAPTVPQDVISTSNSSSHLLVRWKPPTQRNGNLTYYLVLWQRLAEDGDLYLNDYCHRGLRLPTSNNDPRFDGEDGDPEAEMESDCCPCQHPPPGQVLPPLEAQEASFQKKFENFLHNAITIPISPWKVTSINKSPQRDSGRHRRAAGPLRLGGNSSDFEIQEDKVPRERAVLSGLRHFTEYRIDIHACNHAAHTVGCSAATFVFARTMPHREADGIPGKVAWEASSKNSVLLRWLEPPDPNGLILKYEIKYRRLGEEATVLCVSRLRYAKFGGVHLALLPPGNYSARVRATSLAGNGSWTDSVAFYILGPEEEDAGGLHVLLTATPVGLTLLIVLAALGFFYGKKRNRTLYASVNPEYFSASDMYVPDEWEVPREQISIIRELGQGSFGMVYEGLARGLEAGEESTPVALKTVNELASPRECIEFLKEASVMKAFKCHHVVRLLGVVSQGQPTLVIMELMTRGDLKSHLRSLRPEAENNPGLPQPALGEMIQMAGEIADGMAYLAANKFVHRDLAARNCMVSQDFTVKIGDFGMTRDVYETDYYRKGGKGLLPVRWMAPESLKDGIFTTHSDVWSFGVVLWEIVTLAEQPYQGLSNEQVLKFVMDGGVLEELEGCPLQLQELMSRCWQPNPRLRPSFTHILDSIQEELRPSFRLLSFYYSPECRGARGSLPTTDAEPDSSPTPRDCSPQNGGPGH
RON, sequence (Q04912 25-1400): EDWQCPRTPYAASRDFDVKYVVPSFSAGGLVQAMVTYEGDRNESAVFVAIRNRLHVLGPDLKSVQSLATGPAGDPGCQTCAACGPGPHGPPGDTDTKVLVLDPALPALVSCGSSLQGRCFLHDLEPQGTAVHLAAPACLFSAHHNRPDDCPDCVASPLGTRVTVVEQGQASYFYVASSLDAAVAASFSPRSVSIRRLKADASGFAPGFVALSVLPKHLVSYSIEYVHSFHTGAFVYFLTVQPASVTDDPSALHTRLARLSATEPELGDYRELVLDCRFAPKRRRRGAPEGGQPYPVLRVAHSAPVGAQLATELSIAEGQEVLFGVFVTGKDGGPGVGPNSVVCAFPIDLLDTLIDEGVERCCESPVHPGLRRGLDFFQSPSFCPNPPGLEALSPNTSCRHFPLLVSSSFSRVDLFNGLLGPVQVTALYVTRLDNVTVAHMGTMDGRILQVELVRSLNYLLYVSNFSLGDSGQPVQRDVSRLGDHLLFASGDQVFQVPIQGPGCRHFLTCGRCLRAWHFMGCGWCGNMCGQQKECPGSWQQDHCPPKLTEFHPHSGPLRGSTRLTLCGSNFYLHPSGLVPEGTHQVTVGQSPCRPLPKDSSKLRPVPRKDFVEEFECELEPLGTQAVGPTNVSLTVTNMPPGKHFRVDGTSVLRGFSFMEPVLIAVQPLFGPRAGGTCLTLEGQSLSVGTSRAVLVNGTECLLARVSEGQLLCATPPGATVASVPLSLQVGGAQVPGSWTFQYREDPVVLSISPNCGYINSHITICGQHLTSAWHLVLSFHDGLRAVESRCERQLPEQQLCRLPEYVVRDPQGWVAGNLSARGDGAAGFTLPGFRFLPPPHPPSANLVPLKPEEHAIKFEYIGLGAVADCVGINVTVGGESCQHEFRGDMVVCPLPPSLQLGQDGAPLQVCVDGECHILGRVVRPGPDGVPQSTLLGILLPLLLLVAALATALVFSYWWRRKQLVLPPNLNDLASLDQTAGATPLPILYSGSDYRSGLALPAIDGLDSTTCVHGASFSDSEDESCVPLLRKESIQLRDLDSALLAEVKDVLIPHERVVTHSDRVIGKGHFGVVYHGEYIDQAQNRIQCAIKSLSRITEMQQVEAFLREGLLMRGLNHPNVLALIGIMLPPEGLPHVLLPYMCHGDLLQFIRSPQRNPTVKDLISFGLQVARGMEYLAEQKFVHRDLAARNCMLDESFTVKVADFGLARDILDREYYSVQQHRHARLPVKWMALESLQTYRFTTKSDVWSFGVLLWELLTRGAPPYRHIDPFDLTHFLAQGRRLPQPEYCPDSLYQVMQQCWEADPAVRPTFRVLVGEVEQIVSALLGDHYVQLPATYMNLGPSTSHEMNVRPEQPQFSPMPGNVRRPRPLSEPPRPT
PAK4, sequence (O96013 whole entry): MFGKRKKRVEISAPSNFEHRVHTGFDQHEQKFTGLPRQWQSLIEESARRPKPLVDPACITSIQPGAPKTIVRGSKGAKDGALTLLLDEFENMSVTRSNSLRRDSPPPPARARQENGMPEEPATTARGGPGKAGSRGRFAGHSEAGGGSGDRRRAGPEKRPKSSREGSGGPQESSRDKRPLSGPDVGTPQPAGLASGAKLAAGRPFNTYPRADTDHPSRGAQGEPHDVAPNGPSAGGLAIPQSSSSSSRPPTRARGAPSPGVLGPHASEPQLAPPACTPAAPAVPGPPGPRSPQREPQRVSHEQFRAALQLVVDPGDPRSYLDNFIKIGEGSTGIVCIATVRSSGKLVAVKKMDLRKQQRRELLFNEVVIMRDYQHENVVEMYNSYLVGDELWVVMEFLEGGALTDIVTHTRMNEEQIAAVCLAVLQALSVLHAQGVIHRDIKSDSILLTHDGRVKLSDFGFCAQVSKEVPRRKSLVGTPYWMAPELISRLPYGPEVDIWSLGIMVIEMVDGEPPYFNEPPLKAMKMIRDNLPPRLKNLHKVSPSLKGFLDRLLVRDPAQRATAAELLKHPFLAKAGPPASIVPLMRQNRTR
MER, sequence (Q12866 21-999): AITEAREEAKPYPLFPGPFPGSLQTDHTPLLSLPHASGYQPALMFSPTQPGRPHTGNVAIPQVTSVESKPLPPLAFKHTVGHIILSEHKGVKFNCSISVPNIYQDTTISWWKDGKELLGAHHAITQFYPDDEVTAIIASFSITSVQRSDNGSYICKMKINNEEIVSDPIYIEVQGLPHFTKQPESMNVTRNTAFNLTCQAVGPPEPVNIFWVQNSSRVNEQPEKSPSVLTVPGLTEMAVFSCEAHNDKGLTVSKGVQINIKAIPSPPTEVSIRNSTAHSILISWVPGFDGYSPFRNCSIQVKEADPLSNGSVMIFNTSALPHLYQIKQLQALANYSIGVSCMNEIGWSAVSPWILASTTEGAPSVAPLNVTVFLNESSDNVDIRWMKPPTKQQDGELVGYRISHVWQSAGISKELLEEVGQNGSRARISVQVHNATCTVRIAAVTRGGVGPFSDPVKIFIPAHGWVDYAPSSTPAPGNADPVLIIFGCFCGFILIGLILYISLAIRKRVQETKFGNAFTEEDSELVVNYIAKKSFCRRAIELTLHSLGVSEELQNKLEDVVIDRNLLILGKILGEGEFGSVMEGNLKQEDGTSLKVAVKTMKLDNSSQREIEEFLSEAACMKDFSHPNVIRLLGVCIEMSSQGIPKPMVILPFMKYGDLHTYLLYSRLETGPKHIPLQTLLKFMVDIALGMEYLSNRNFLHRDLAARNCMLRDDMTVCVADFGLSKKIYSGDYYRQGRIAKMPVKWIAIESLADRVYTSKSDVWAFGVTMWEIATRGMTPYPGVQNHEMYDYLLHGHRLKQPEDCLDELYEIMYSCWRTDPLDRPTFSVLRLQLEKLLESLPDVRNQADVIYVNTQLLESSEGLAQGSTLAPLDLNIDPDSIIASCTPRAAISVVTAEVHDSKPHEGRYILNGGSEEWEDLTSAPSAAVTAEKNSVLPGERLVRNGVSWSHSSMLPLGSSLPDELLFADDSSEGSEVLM
MUSK, sequence (O15146 24-869): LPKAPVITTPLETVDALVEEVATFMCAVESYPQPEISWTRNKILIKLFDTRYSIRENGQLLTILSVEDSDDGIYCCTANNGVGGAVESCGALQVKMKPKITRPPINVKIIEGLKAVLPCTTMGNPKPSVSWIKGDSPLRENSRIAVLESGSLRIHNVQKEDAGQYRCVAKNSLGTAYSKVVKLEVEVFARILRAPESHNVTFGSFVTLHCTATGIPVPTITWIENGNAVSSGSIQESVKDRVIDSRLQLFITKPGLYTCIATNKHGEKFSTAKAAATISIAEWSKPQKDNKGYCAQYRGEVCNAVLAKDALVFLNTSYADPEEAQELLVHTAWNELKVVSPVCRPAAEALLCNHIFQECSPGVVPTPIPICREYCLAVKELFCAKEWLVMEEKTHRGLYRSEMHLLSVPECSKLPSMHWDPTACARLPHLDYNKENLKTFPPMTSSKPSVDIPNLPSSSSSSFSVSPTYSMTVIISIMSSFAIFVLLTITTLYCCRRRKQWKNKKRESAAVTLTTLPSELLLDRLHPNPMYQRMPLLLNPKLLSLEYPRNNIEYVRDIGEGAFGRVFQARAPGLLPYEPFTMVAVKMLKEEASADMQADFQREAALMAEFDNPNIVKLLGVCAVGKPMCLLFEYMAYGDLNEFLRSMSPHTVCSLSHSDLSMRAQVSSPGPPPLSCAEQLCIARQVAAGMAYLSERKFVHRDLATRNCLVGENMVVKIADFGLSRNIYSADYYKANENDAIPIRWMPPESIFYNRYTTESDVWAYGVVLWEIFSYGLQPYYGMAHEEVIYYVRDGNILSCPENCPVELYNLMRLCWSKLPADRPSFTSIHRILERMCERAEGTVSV

Compound: C=CC(=O)Nc1ccccc1Nc1ncc2c(n1)N(CCCN1CCN(C(=O)C=C)CC1)C(=O)N(c1cc(OC)cc(OC)c1)C2 [CXF-009]
- inhibition at 1 µM (PDGFRa): -0.91%
- inhibition at 1 µM (FYNb): -2.49%
- inhibition at 1 µM (EPHB4): -1.86%
- inhibition at 1 µM (EPHA7): 2.74%
- inhibition at 1 µM (LYNa): -2.53%
- inhibition at 1 µM (EPHA5): 8.67%
- inhibition at 1 µM (MAPKAPK2): 0.15%
- inhibition at 1 µM (CDK2/CycE1): 1.59%
- inhibition at 1 µM (BRK): 1.91%
- inhibition at 1 µM (PLK1): 0.59%
- inhibition at 1 µM (MER): 3.59%
- IC50 (Huh7): 727 nM
- inhibition at 1 µM (AurC): 2.77%
- inhibition at 1 µM (TGFbR1): 1.08%
- inhibition at 1 µM (p38δ): 13.9%
- inhibition at 1 µM (HPK1): -2.36%
- inhibition at 1 µM (BRAF[V600E]): -1.68%
- inhibition at 1 µM (MUSK): -3.46%
- inhibition at 1 µM (IKKε(IKBKE)): 7.21%
- inhibition at 1 µM (IRR): -3.5%
- inhibition at 1 µM (TNIK): -13.4%
- inhibition at 1 µM (CDK9/CycK): 0.11%
- inhibition at 1 µM (PAK4): 6.5%
- inhibition at 1 µM (HIPK2): -5.04%
- inhibition at 1 µM (FGFR1): 4.98%
- inhibition at 1 µM (p38γ): 0.13%
- inhibition at 1 µM (DYRK1B): 0.62%
- inhibition at 1 µM (NEK9): 5.11%
- inhibition at 1 µM (RON): -4.53%
- inhibition at 1 µM (TRKC(NTRK3)): 8.57%
- inhibition at 1 µM (FLT1 (VEGFR1)): 5.91%
- inhibition at 1 µM (TYK2): -5.05%
- inhibition at 1 µM (TAOK2): -3.76%
- inhibition at 1 µM (SRC): 3.48%
- inhibition at 1 µM (EPHA2): 2.12%
- inhibition at 1 µM (AKT1): 3.98%
- inhibition at 1 µM (JAK2): 0.56%
- inhibition at 1 µM (Erk2): 0.94%
- inhibition at 1 µM (CLK1): 1.48%
